Reference: patent US20260364124A1, “ANTI-C. DIFFICILE SMALL MOLECULE METABOLITES FROM DIET AND GUT MICROBIOME” (The Children's Medical Center Corporation, priority 2023, published 2026)

Tested on: B. uniformis
Experiment: In vitro aglycone liberation by wildtype B. uniformis (LC-MS)
Set-up: species or system Bacteroides uniformis ATCC 8492
Settings: role: substrate; B. uniformis cultivated with polydatin (FIG. 2)
From the text: Comparative LC-MS EICs (Extracted Ion Chromatogram) of methanol-water extracts of bacterial cultures supplemented with each polyphenolic glycoside after eight hours are provided. The trace labeled “A” corresponds to the EIC of each glycoside, and the trace labeled “B” corresponds to the EIC of each aglycone. The portion of the trace “B” peak overlapping the trace “A” peak corresponds to the aglycone detected from fragmentation of the glycoside at the ionization source and is a technical artifact.
FIGS. 5A and 5B show microbiome-mediated polyphenol aglycone liberation. […] Step 2: Spent media was filter-sterilized. Step 3: C. difficile was grown in spent media from either vehicle or polydatin (top).
In vitro aglycone liberation: All B. uniformis strains were grown on brain-heart-infusion supplemented with hemin (50 mg/L) and vitamin K1 (0.25 mg/L) (BHIS) agar plates or in basal media (BSG; proteose peptone (20 g/L), yeast (5 g/L), NaCl (5 g/L), glucose (5 g/L), potassium phosphate dibasic (5 g/L), cysteine (0.5 g/L), hemin (50 mg/L), and vitamin K1 (0.25 mg/L). All isolates were recovered on and grown in pre-reduced media in a Coy anaerobic chamber (Coy Labs).
To assess the capacity of Bacteroides to liberate aglycones from their parent polyphenolic glycosides, B. uniformis ATCC 8492 WT and AgshD were recovered on a BHIS agar plate and incubated anaerobically at 37 °C for 48 h. A starter culture (1 mL) of BSG was inoculated with each isolate and grown for 15 h. This starter culture was then used to inoculate a BSG sub-culture (1 mL) at a final dilution of 1:10. […]
For polyphenolic glycoside and aglycone-containing samples, samples were dried under nitrogen flow and resuspended in 50 μl of methanol 50% in water. […] Samples were quantified on a QEplus mass spectrometer coupled to an Ultimate 3000 LC (Thermo fisher). […] Quantification was performed using Tracefinder (Thermo fisher), using the ratio of the area under the peak for each compound and of the internal standard, using the accurate mass of the [M−H]^− ions.

OC[C@H]1O[C@@H](Oc2cc(O)cc(/C=C/c3ccc(O)cc3)c2)[C@H](O)[C@@H](O)[C@@H]1O [polydatin]
liberation of resveratrol from polydatin: liberated resveratrol
